Assay results published in US20250228239A1, “MOLECULES HAVING PESTICIDAL UTILITY, AND INTERMEDIATES, COMPOSITIONS, AND PROCESSES, RELATED THERETO” (priority 2024, published 2025).

What was measured:
Format in all cases: in vivo
[1] = tested on: Beet Armyworm (Spodoptera exigua, LAPHEG); assay: Bioassays on Beet Armyworm (BAW), 128-well diet tray assay; settings: Spodoptera exigua; Beet Armyworm; rating class; read-out: BAW
Summary of the method: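 Percent larval mortality, averaged across eight wells, scored after five to seven days at 25° C. under 14:10 light-dark. Each well held one to five second instars feeding on diet dosed at 50 μg/cm^2 with compound from 90:10 acetone-water, solvent dried off.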

[2] = tested on: Cabbage Looper (Trichoplusia ni, TRIPNI); assay: Bioassays on Cabbage Looper (CL), 128-well diet tray assay; settings: Trichoplusia ni; Cabbage Looper; rating class; read-out: CL
Summary of the method: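 Second-instar larvae (1–5 per well) placed on artificial diet surface-treated with 50 μg/cm^2 test molecule applied in 90:10 acetone-water and dried. Held at 25° C., 14:10 light-dark, for five to seven days. Percent mortality scored per well and averaged over eight wells.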

[3] = tested on: Yellow Fever Mosquito (Aedes aegypti, AEDSAE); settings: Yellow Fever Mosquito; rating class
Summary of the method: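 Larvae ~1 day old, in liver powder/water; compound from 4000 ppm DMSO stock diluted with water/acetone (90:10); 6 reps; lidded, RT, 3 d; mortality scored per well, rated.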

[4] = tested on: Green Peach Aphid (Myzus persicae, MYZUPE); assay: Bioassays on Green Peach Aphid (GPA), foliar spray on cabbage seedlings; settings: 72 h, Green Peach Aphid, rating class, read-out: GPA
Summary of the method: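 Percent control (Abbott-corrected versus solvent-sprayed plants) comes from live-aphid counts three days after treatment at about 25° C. Test solution at 200 ppm was sprayed to runoff onto both leaf surfaces of cabbage seedlings infested a day earlier with 20-50 aphids; four replicate pots.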

SMILES: O=C(Nc1ccc(F)c(NC(=O)C(F)(F)F)c1F)c1cc(NC(=O)[C@H]2[C@H](c3ccc(F)c(C(F)(F)F)c3)C2(Cl)Cl)ccc1F [F1529, 5-((1R,3R)-2,2-Dichloro-3-(4-fluoro-3-(trifluoromethyl)phenyl)cyclopropane-1-carboxamido)-N-(2,4-difluoro-3-(2,2,2-trifluoroacetamido)phenyl)-2-fluorobenzamide]
- pest or weed control at 50 µg/cm2 [1]: 50 to 100%
- pest or weed control at 50 µg/cm2 [2]: 50 to 100%
- YFM [3]: A (80–100)
- pest or weed control at 200 µg/mL [4]: 0 to 80%

SMILES: C[C@H]1CC[C@@H](C(=O)Nc2c(F)ccc(NC(=O)c3cc(NC(=O)[C@H]4[C@H](c5ccc(F)c(C(F)(F)F)c5)C4(Cl)Cl)ccc3Cl)c2F)O1 [F1612, (2S,5S)-N-(3-(2-Chloro-5-((1R,3R)-2,2-dichloro-3-(4-fluoro-3-(trifluoromethyl)phenyl)cyclopropane-1-carboxamido)benzamido)-2,6-difluorophenyl)-5-methyltetrahydrofuran-2-carboxamide]
- pest or weed control at 50 µg/cm2 [1]: 50 to 100%
- pest or weed control at 50 µg/cm2 [2]: 50 to 100%
- YFM [3]: A (80–100)
- pest or weed control at 200 µg/mL [4]: 0 to 80%

SMILES: CC(=O)Nc1c(F)cc(F)c(NC(=O)c2cc(NC(=O)[C@H]3[C@H](c4ccc(F)c(C(F)(F)F)c4)C3(Cl)Cl)ccc2Cl)c1F [F1613, N-(3-Acetamido-2,4,6-trifluorophenyl)-2-chloro-5-((1R,3R)-2,2-dichloro-3-(4-fluoro-3-(trifluoromethyl)phenyl)cyclopropane-1-carboxamido)benzamide]
- pest or weed control at 50 µg/cm2 [1]: 50 to 100%
- pest or weed control at 50 µg/cm2 [2]: 50 to 100%
- YFM [3]: A (80–100)
- pest or weed control at 200 µg/mL [4]: 80 to 100%

SMILES: CN(C(=O)C(F)(F)C(F)(F)F)c1c(F)ccc(NC(=O)c2cc(NC(=O)[C@H]3[C@H](c4ccc(Cl)c(Cl)c4)C3(Cl)Cl)ccc2Cl)c1F [F1615, 2-Chloro-5-((1R,3R)-2,2-dichloro-3-(3,4-dichlorophenyl)cyclopropane-1-carboxamido)-N-(2,4-difluoro-3-(2,2,3,3,3-pentafluoro-N-methylpropanamido)phenyl)benzamide]
- pest or weed control at 50 µg/cm2 [1]: 50 to 100%
- pest or weed control at 50 µg/cm2 [2]: 50 to 100%
- YFM [3]: A (80–100)
- pest or weed control at 200 µg/mL [4]: 0 to 80%

SMILES: CN(C(=O)CC#N)c1c(F)ccc(NC(=O)c2cc(NC(=O)[C@H]3[C@H](c4ccc(Cl)c(Cl)c4)C3(Cl)Cl)ccc2Cl)c1F [F1617, 2-Chloro-N-(3-(2-cyano-N-methylacetamido)-2,4-difluorophenyl)-5-((1R,3R)-2,2-dichloro-3-(3,4-dichlorophenyl)cyclopropane-1-carboxamido)benzamide]
- pest or weed control at 50 µg/cm2 [1]: 50 to 100%
- pest or weed control at 50 µg/cm2 [2]: 50 to 100%
- YFM [3]: A (80–100)
- pest or weed control at 200 µg/mL [4]: 0 to 80%

SMILES: O=C1CCC(C(=O)Nc2c(F)ccc(NC(=O)c3cc(NC(=O)[C@H]4[C@H](c5ccc(F)c(C(F)(F)F)c5)C4(Cl)Cl)ccc3Cl)c2F)O1 (stereo partly drawn) [F1625, N-(3-(2-Chloro-5-((1R,3R)-2,2-dichloro-3-(4-fluoro-3-(trifluoromethyl)phenyl)cyclopropane-1-carboxamido)benzamido)-2,6-difluorophenyl)-5-oxotetrahydrofuran-2-carboxamide]
- pest or weed control at 50 µg/cm2 [1]: 50 to 100%
- pest or weed control at 50 µg/cm2 [2]: 50 to 100%
- YFM [3]: A (80–100)
- pest or weed control at 200 µg/mL [4]: 0 to 80%

SMILES: CC(=O)Nc1c(F)cc(F)c(NC(=O)c2cc(NC(=O)[C@H]3[C@H](c4ccc(F)c(Cl)c4)C3(Cl)Cl)ccc2Cl)c1F [F1627, N-(3-Acetamido-2,4,6-trifluorophenyl)-2-chloro-5-((1R,3R)-2,2-dichloro-3-(3-chloro-4-fluorophenyl)cyclopropane-1-carboxamido)benzamide]
- pest or weed control at 50 µg/cm2 [1]: 50 to 100%
- pest or weed control at 50 µg/cm2 [2]: 50 to 100%
- YFM [3]: A (80–100)
- pest or weed control at 200 µg/mL [4]: 80 to 100%

SMILES: CCC(C)C(=O)Nc1c(F)ccc(NC(=O)c2cc(NC(=O)[C@H]3[C@H](c4ccc(F)c(C(F)(F)F)c4)C3(Cl)Cl)ccc2Cl)c1F (stereo partly drawn) [F1642, 2-Chloro-5-((1R,3R)-2,2-dichloro-3-(4-fluoro-3-(trifluoromethyl)phenyl)cyclopropane-1-carboxamido)-N-(2,4-difluoro-3-(2-methylbutanamido)phenyl)benzamide]
- pest or weed control at 50 µg/cm2 [1]: 50 to 100%
- pest or weed control at 50 µg/cm2 [2]: 50 to 100%
- YFM [3]: A (80–100)
- pest or weed control at 200 µg/mL [4]: 0 to 80%

SMILES: O=C(Nc1ccc(F)c(NC(=O)C2CCCC2)c1F)c1cc(NC(=O)[C@H]2[C@H](c3ccc(F)c(C(F)(F)F)c3)C2(Cl)Cl)ccc1Cl [F1643, 2-Chloro-N-(3-(cyclopentanecarboxamido)-2,4-difluorophenyl)-5-((1R,3R)-2,2-dichloro-3-(4-fluoro-3-(trifluoromethyl)phenyl)cyclopropane-1-carboxamido)benzamide]
- pest or weed control at 50 µg/cm2 [1]: 50 to 100%
- pest or weed control at 50 µg/cm2 [2]: 50 to 100%
- YFM [3]: B (More than 0 – Less than 80)
- pest or weed control at 200 µg/mL [4]: 0 to 80%

SMILES: O=C(Nc1ccc(F)c(NC(=O)C2CC(F)(F)C2)c1F)c1cc(NC(=O)[C@H]2[C@H](c3ccc(F)c(C(F)(F)F)c3)C2(Cl)Cl)ccc1Cl [F1644, 2-Chloro-5-((1R,3R)-2,2-dichloro-3-(4-fluoro-3-(trifluoromethyl)phenyl)cyclopropane-1-carboxamido)-N-(3-(3,3-difluorocyclobutane-1-carboxamido)-2,4-difluorophenyl)benzamide]
- pest or weed control at 50 µg/cm2 [1]: 50 to 100%
- pest or weed control at 50 µg/cm2 [2]: 50 to 100%
- YFM [3]: B (More than 0 – Less than 80)
- pest or weed control at 200 µg/mL [4]: 0 to 80%

SMILES: CCCC(=O)Nc1c(F)ccc(NC(=O)c2cc(NC(=O)[C@H]3[C@H](c4cc(Cl)c(Cl)c(Cl)c4)C3(Cl)Cl)ccc2Cl)c1F [F1655, N-(3-Butyramido-2,4-difluorophenyl)-2-chloro-5-((1R,3R)-2,2-dichloro-3-(3,4,5-trichlorophenyl)cyclopropane-1-carboxamido)benzamide]
- pest or weed control at 50 µg/cm2 [1]: 50 to 100%
- pest or weed control at 50 µg/cm2 [2]: 50 to 100%
- YFM [3]: B (More than 0 – Less than 80)
- pest or weed control at 200 µg/mL [4]: 0 to 80%

SMILES: O=C(Nc1ccc(F)c(NC(=O)C(F)(F)F)c1F)c1cc(NC(=O)[C@H]2[C@H](c3ccc(Cl)c(C(F)(F)F)c3)C2(Cl)Cl)ccc1Cl [F1656, 2-Chloro-5-((1R,3R)-2,2-dichloro-3-(4-chloro-3-(trifluoromethyl)phenyl)cyclopropane-1-carboxamido)-N-(2,4-difluoro-3-(2,2,2-trifluoroacetamido)phenyl)benzamide]
- pest or weed control at 50 µg/cm2 [1]: 50 to 100%
- pest or weed control at 50 µg/cm2 [2]: 50 to 100%
- YFM [3]: A (80–100)
- pest or weed control at 200 µg/mL [4]: 0 to 80%

SMILES: O=C(Nc1ccc(F)c(NC(=O)C(F)F)c1F)c1cc(NC(=O)[C@H]2[C@H](c3ccc(Cl)c(C(F)(F)F)c3)C2(Cl)Cl)ccc1Cl [F1657, 2-Chloro-5-((1R,3R)-2,2-dichloro-3-(4-chloro-3-(trifluoromethyl)phenyl)cyclopropane-1-carboxamido)-N-(3-(2,2-difluoroacetamido)-2,4-difluorophenyl)benzamide]
- pest or weed control at 50 µg/cm2 [1]: 50 to 100%
- pest or weed control at 50 µg/cm2 [2]: 50 to 100%
- YFM [3]: A (80–100)
- pest or weed control at 200 µg/mL [4]: 80 to 100%

SMILES: Nc1c(F)ccc(NC(=O)c2cc(NC(=O)[C@H]3[C@H](c4cccc(C(F)(F)F)c4)C3(Cl)Cl)ccc2Cl)c1F [F1666, N-(3-Amino-2,4-difluorophenyl)-2-chloro-5-((1R,3R)-2,2-dichloro-3-(3-(trifluoromethyl)phenyl)cyclopropane-1-carboxamido)benzamide]
- pest or weed control at 50 µg/cm2 [1]: 50 to 100%
- pest or weed control at 50 µg/cm2 [2]: 50 to 100%
- YFM [3]: B (More than 0 – Less than 80)
- pest or weed control at 200 µg/mL [4]: 80 to 100%

SMILES: CC(Cl)C(=O)Nc1c(F)ccc(NC(=O)c2cc(NC(=O)[C@H]3[C@H](c4ccc(F)c(C(F)(F)F)c4)C3(Cl)Cl)ccc2Cl)c1F (stereo partly drawn) [F1667, 2-Chloro-N-(3-(2-chloropropanamido)-2,4-difluorophenyl)-5-((1R,3R)-2,2-dichloro-3-(4-fluoro-3-(trifluoromethyl)phenyl)cyclopropane-1-carboxamido)benzamide]
- pest or weed control at 50 µg/cm2 [1]: 50 to 100%
- pest or weed control at 50 µg/cm2 [2]: 50 to 100%
- YFM [3]: B (More than 0 – Less than 80)
- pest or weed control at 200 µg/mL [4]: 0 to 80%

SMILES: O=C(Cc1ccccc1)Nc1c(F)ccc(NC(=O)c2cc(NC(=O)[C@H]3[C@H](c4ccc(Cl)c(Cl)c4)C3(Cl)Cl)ccc2Cl)c1F [F1673, 2-Chloro-5-((1R,3R)-2,2-dichloro-3-(3,4-dichlorophenyl)cyclopropane-1-carboxamido)-N-(2,4-difluoro-3-(2-phenylacetamido)phenyl)benzamide]
- pest or weed control at 50 µg/cm2 [1]: 50 to 100%
- pest or weed control at 50 µg/cm2 [2]: 50 to 100%
- YFM [3]: B (More than 0 – Less than 80)
- pest or weed control at 200 µg/mL [4]: 0 to 80%

SMILES: CC(=O)Nc1c(F)ccc(NC(=O)c2cc(NC(=O)[C@H]3[C@H](c4cccc(C(F)(F)F)c4)C3(Cl)Cl)ccc2Cl)c1F [F1678, N-(3-Acetamido-2,4-difluorophenyl)-2-chloro-5-((1R,3R)-2,2-dichloro-3-(3-(trifluoromethyl)phenyl)cyclopropane-1-carboxamido)benzamide]
- pest or weed control at 50 µg/cm2 [1]: 50 to 100%
- pest or weed control at 50 µg/cm2 [2]: 50 to 100%
- YFM [3]: B (More than 0 – Less than 80)
- pest or weed control at 200 µg/mL [4]: 80 to 100%
